Test results published in patent US6479488B1, “Tetrahydroquinoline derivatives as EAA antagonists” (Glaxo Wellcome SpA, priority 1996, dated 2002).

What was measured:
[1] = target: T1, strychnine insensitive glycine binding site located on the NMDA receptor complex (Rattus norvegicus, UniProt P35439); assay: Affinity for strychnine insensitive glycine binding site (procedure of Kishimoto et al.)
T1 construct: from tissue
Protocol: The potent and selective action of the compound of the invention at the strychnine-insensitive glycine binding site present on the NMDA receptor complex may be readily determined using conventional test procedures. Thus the ability to bind at the strychnine insensitive glycine binding site was determined using the procedure of Kishimoto H et al. J Neurochem 1981, 37 1015-1024. The selectivity of the action of compounds of the invention for the strychnine insensitive glycine site was confirmed in studies at other ionotropic known excitatory amino acid receptors.
The affinity of a compound of the invention for strychnine insensitive glycine binding site located on the NMDA receptor complex was determined using the procedure of Kishimoto H. et al J. Neurochem 1981, 37, 1015-1024.

[2] = tested on: generalized seizures induced by an intracerebroventicular injection of NMDA; assay: Inhibition of NMDA induced convulsions in the mouse (procedure of Chiamulera et al.); assay type: in vivo; conditions: mice, iv, 0.1 mg/kg dose, NMDA icv induced generalized seizures
Protocol: The ability of compounds of the invention to inhibit NMDA induced convulsions in the mouse was determined using the procedure of Chiamulera C et al. Psychopharmacology 1990, 102, 551-552. In this test the ability of the compound when administered iv to inhibit the generalized seizures induced by an intracerebroventicular injection of NMDA in mice was examined at 0.1 mg/kgdose.
The results as percent (%) of inhibition at 0.1 mg/kg dose for representative compounds are given below: […]

Compound	Ki [1]	% of inhibition [2]
NC(=O)C=Cc1ccc(NC(=O)C=C2CC(C(=O)O)Nc3cc(Cl)cc(Cl)c32)cc1 (racemic) [Example 3, (+/−(E,E)-4-[4-(2-Carbamoyl-vinyl)-phenylcarbamoylmethylene]-5,7-dichloro-1,2,3,4-tetrahydro-quinoline-2-carboxylic Acid]	7.94 nM	40%
O=C(C=C1CC(C(=O)O)Nc2cc(Cl)cc(Cl)c21)Nc1ccc(OCCN2CCOCC2)cc1 (racemic) [Example 4, (+/−)(E)-5,7-Dichloro-4-[4-(2-morpholin-4-yl-ethoxy)-phenylcarbamoylmethylene]-1,2,3,4-tetrahydro-guinoline-2-carboxylic Acid]	63.1 nM	–
N#CCc1ccc(NC(=O)/C=C2\CC(C(=O)O)Nc3cc(Cl)cc(Cl)c32)cc1 (racemic) [Example 5, (+/−)(E)-5,7-Dichloro-4-(4-cyanomethyl-phenylcarbamoylmethylene)-1,2,3,4-tetrahydro-quinoline-2-carboxylic Acid]	7.94 nM	–
CC(C)C(=O)NCC(=O)Nc1ccc(NC(=O)/C=C2\CC(C(=O)[O-])Nc3cc(Cl)cc(Cl)c32)cc1.[Na+] (racemic) [Example 9, (+/−)(E)-5,7-Dichloro-4-(4-isobutyrylaminomethylcarbonylamino-phenylcarbamoylmethylene)-1,2,3,4-tetrahydro-quinoline-2-carboxylic Acid Sodium Salt]	7.94 nM	40%

Second part, led by results:

Ki [1]	Compound	% of inhibition [2]
15.8 nM	CC(C)C(=O)NCCOc1ccc(NC(=O)C=C2CC(C(=O)O)Nc3cc(Cl)cc(Cl)c32)cc1 (racemic) [Example 6, (+/−)(E)-5,7-Dichloro-4-[4-(2-isobutyrylamino-ethoxy)-phenylcarbamoylmethylene]-1,2,3,4-tetrahydro-guinoline-2-carboxylic Acid]	40%
6.31 nM	COCC(=O)Nc1ccc(NC(=O)C=C2CC(C(=O)O)Nc3cc(Cl)cc(Cl)c32)cc1 (racemic) [Example 7, (+/−)(E)-5,7-Dichloro-4-[4-(2-methoxy-acetylamino)-phenylcarbamoylmethylene-1,2,3,4-tetrahydro-quinoline-2-carboxylic Acid]	40%
